Experimental findings from patent US12006311B2, “Compounds for use in preventing or treating cancer” (FUNDACIÓ HOSPITAL UNIVERSITARI VALL D'HEBRON—INSTITUT DE …, priority 2018, dated 2024) are described below.

The subject of test [1] is rhabdomyosarcoma cell line RH4. Kind of test: cell growth test based on Methyl violet staining, RH4. The note with it: for anti-proliferative activity (cell growth in percentage with respect to vehicle-treated cells): 10 microM, 5 days of incubation, compared with Vismodegib (FIG. 1). The procedure: (§1) FIG. 1 represents the effects in percentage with respect to vehicle-treated cells (DMSO) of five compounds according to formula (I) (IUCT-0460, IUCT-0462, IUCT-0463, IUCT-0467, IUCT-0469) and the reference compound Vismodegib on cell growth of RH4 rhabdomyosarcoma cells after 5 day incubation (mean+/−SD). All compounds were used at a concentration of 10 microM. Statistical analysis was performed using ANOVA. As statistical differences were observed (p=0), the pairwise comparison against the vehicle control was made using the Tukey test. Notation: ***=statistically-significant difference with a p-value<0.001, **=p-value<0.01 and *=p-value<0.05.
(§2) The measurements were taken using an in vitro test to measure cell growth based on Methyl violet staining after 5 days of incubation with the aforementioned drugs or control vehicle (DMSO). The procedure was carried out in a 96-well plate and cells were fixed for 30 minutes with 4% paraformaldehyde (PFA) at room temperature. After 3 washes with phosphate-buffered saline (PBS), cells were stained for 30 minutes at room temperature with Methyl violet (dilution 1/25 of a stock solution made with 1.5% w/v in PBS). After 5 washes, and the addition of acetic acid (15% in water), plates were read in a spectrophotometer at 590 nm. All conditions were tested in 8 independent wells and results expressed as a mean of all replicates (FIG. 1).
Additional measurements using the same procedure were made specifically for the compound IUCT-0463 to obtain a dose-response curve from 1 to 50 μM in the cell line RH4.

Test [2] has as its system rhabdomyosarcoma cell line RD. The experiment in a line: cell growth test based on Methyl violet staining, RD. The note with it: RD cells; for anti-proliferative activity (cell growth in percentage with respect to the vehicle control): 10 microM, 5 days of incubation, compared with Vismodegib (FIG. 3). How it is done: as §1, with “FIG. 3” for “FIG. 1”, “effects (in” for “effects in”, “to the vehicle control DMSO)” for “to vehicle-treated cells (DMSO)”, “of RD” for “of RH4”
as §2, with “3).” for “1).”
Additional measurements using the same procedure were made specifically for the compound IUCT-0463 to obtain a dose-response curve from 1 to 50 μM in the cell line RD.

The subject of test [3] is panel of cancer cell lines (RD, RH4, RH30, SKNBE2, SKNAS, U373MG, SKES1, TC71, PC3, HeLa, A549, MDA-MB231, HCT116). The experiment in a line: cell growth test based on Methyl violet staining, panel of cancer cell lines. The following applies: panel of 13 cancer cell lines, 10 microM, 5 day incubation (FIG. 5). The procedure:
The cell lines analyzed are as follows: RD, RH4 and RH30 (rhabdomyosarcoma, RMS); SKNBE2 and SKNAS (neuroblastoma, NBL); U373MG (glioblastoma, GBL); SKES1 and TC71 (Ewing's sarcoma, EWING); PC3 (prostate cancer, PC); HeLa (epitheloid cervix carcinoma, ECC); A549 (lung cancer, LC); MDA-MB231 (breast cancer, BC) and HCT116 (colorectal cancer, CC). Statistical analysis was performed using ANOVA. As statistical differences were observed (p=0), the pairwise comparison against the vehicle control was made using the Tukey test. Notation: ***=statistically-significant difference with a p-value<0.001, **=p-value<0.01 and *=p-value<0.05.
With the compound showing a better cell growth reduction (IUCT-0463), additional tests were performed with the aim of studying the possible application of this family of compounds to other cancers. The procedure was carried out in a 96-well plate and cells were fixed for 30 minutes with 4% paraformaldehyde (PFA) at room temperature. After 3 washes with phosphate-buffered saline (PBS), cells were stained for 30 minutes at room temperature with Methyl violet (dilution 1/25 of a stock solution made with 1.5% w/v in PBS). After 5 washes, and the addition of acetic acid (15% in water), plates were read in a spectrophotometer at 590 nm.

Take `COc1ccccc1-c1ccc(N2CCCC(NS(=O)(=O)c3cc(Cl)c(Cl)s3)C2=O)c(F)c1` (stereo not shown) [IUCT-0460, 4,5-Dichloro-N-(1-(3-fluoro-2′-methoxy-[1,1′-biphenyl]-4-yl)-2-oxopiperidin-3-yl)thiophene-2-sulfonamide]: the “anti-proliferative activity (cell growth in percentage with respect to vehicle-treated cells)” value in test [1] is on record as “better anti-proliferative activity than the reference compound Vismodegib”. For the same molecule, the “anti-proliferative activity (cell growth in percentage with respect to the vehicle control)” value in test [2] is “better anti-proliferative activity than the reference compound Vismodegib”.
Turning to `COc1ccccc1-c1ccc(N2CCCC(NS(=O)(=O)c3ccc4c(c3)OCO4)C2=O)c(F)c1` (stereo not shown) [IUCT-0462, N-(1-(3-fluoro-2′-methoxy-[1,1′-biphenyl]-4-yl)-2-oxopiperidin-3-yl)benzo[d][1,3]dioxole-5-sulfonamide], the “anti-proliferative activity (cell growth in percentage with respect to vehicle-treated cells)” value in test [1] was “better anti-proliferative activity than the reference compound Vismodegib”. Moreover, the “anti-proliferative activity (cell growth in percentage with respect to the vehicle control)” value in test [2] is “better anti-proliferative activity than the reference compound Vismodegib”.
In the case of `COc1ccccc1-c1ccc(N2CCCC(NS(=O)(=O)c3ccc(-c4ccccn4)s3)C2=O)c(F)c1` (stereo not shown) [IUCT-0463, N-(1-(3-fluoro-2′-methoxy-[1,1′-biphenyl]-4-yl)-2-oxopiperidin-3-yl)-5-(pyridin-2-yl)thiophene-2-sulfonamide], the “anti-proliferative activity (cell growth in percentage with respect to vehicle-treated cells)” value in test [1] is listed as “better anti-proliferative activity than the reference compound Vismodegib”. Also, the “anti-tumor activity, dose-response curve” value in test [1] (RH4 cells, dose-response curve from 1 to 50 μM, compared with Vismodegib (FIG. 2)) is recorded as “clear improvement of the anti-tumor activity when compared to the reference compound Vismodegib”; in test [2] (dose-response curve from 1 to 50 μM, compared with Vismodegib (FIG. 4)), “clear improvement of the anti-tumor activity when compared to the reference compound Vismodegib”. Also, the “anti-proliferative activity (cell growth in percentage with respect to the vehicle control)” value in test [2] is given as “better anti-proliferative activity than the reference compound Vismodegib”. In addition, the “cell proliferation (cell growth in percentage with respect to the vehicle control)” value in test [3] is given as “remarkable rediction of cell proliferation in the majority of the cell lines analized”.
Take `COc1ccccc1-c1ccc(N2CCCC(N(CC(=O)N3CCOCC3)S(=O)(=O)c3ccc4c(c3)OCO4)C2=O)c(F)c1` (stereo not shown) [IUCT-0467, N-(1-(3-fluoro-2′-methoxy-[1,1′-biphenyl]-4-yl)-2-oxopiperidin-3-yl)-N-(2-morpholino-2-oxoethyl)benzo[d][1,3]dioxole-5-sulfonamide]: the “anti-proliferative activity (cell growth in percentage with respect to vehicle-treated cells)” value in test [1] is given as “better anti-proliferative activity than the reference compound Vismodegib”. Further, the “anti-proliferative activity (cell growth in percentage with respect to the vehicle control)” value in test [2] is given as “better anti-proliferative activity than the reference compound Vismodegib”.
Regarding `CCOC(=O)CN(C1CCCN(c2ccc(-c3ccccc3OC)cc2F)C1=O)S(=O)(=O)c1ccc(-c2ccccn2)s1` (stereo not shown) [IUCT-0469, Ethyl N-(1-(3-fluoro-2′-methoxy-[1,1′-biphenyl]-4-yl)-2-oxopiperidin-3-yl)-N-((5-(pyridin-2-yl)thiophen-2-yl)sulfonyl)glycinate], in test [1], the “anti-proliferative activity (cell growth in percentage with respect to vehicle-treated cells)” value is reported as “better anti-proliferative activity than the reference compound Vismodegib”. For the same molecule, in test [2], the “anti-proliferative activity (cell growth in percentage with respect to the vehicle control)” value is “better anti-proliferative activity than the reference compound Vismodegib”.
